Earlier results in patent publication US10827752B2, “Disinfectant composition” (priority 2010, dated 2020).
Entries after “also recorded” stand apart in the source; their conditions may differ.

Tested on: spores
Conditions: approximately 2500 ppm of peracetic acid

Compound: CC(=O)OO [peracetic acid]
- sporicidal action: excellent sporicidal action; also recorded: excellent sporicidal results
